“Also recorded” adds a separate entry of the source. Where a SMILES comes first, the peptide text is derived from it.
Tests used:
[1] = tested on: human Kv1.3 channel (hKv1.3); assay: Whole-cell patch-clamp of phage-displayed toxins, hKv1.3 in human lymphocytes; format: cell-based; conditions: for estimated relative potency in phage-displayed form: from phage concentrations required to reach 50% block of hKv1.3 current, Vm24 = 1, Fig. 9B; for inhibition of Kv1.3 current in phage-displayed form, in words: phage-displayed peptide, DDDKTX1- and KTX1-phage at 3.6 × 10^13 particle/ml
Experimental: Human Kv1.3 currents were recorded from activated peripheral blood mononuclear cells (see below) 3 to 4 days after activation. Heparinized human peripheral venous blood was obtained from healthy volunteers. Mononuclear cells were separated through Histopaque-1077 density gradient centrifugation. Collected cells were washed twice with Ca^2+- and Mg^2+-free Hanks’ solution containing 25 mM Hepes buffer, pH 7.4. Cells were cultured for 3 to 4 days in 24-well culture plates in a 5% CO2 incubator at 37 °C, in RPMI 1640 medium supplemented with 10% fetal calf serum (Sigma-Aldrich), 100 μg/ml penicillin, 100 μg/ml streptomycin, and 2 mM L-glutamine (density, 0.5 × 10^6 cells per ml). Phytohemagglutinin A (Sigma-Aldrich) was added to the medium at 10 μg/ml to amplify the Kv1.3 expression. Cells were washed gently twice with 2 ml of ECS for the patch-clamp experiments.
Conventional whole-cell patch-clamp electrophysiology was used to record ionic currents. Micropipettes were pulled from GC150F-7.5 borosilicate capillaries (Harvard Apparatus) with tip diameters between 0.5 and 1 μm resulting in a tip resistance of 2 to 8 MΩ in the extracellular (bath) solution. All measurements were carried out by using Axopatch 200B amplifier connected to a personal computer using Axon Digidata 1550A data acquisition hardware and Pclamp10.7 software (https://support.moleculardevices.com/s/article/Axon-pCLAMP-10-Electrophysiology-Data-Acquisition-Analysis-Software-Download-Page). The holding potential was −120 mV. Records were discarded when leak at the holding potential was >10% of peak current at the test potential. Experiments were performed at room temperature (20–24 °C). Before analysis, whole-cell current traces were corrected for ohmic leakage and digitally filtered with a three-point boxcar smoothing filter.
Solutions: all salts and components of the solutions were purchased from Sigma Aldrich. The extracellular (bath) solution (ECS) contained 145 mM NaCl, 5 mM KCl, 2.5 mM CaCl2, 1 mM MgCl2, 10 mM Hepes, and 5.5 mM glucose (pH 7.35 with NaOH), while the intracellular (pipette) solution (ICS) contained 140 mM KF, 2 mM MgCl2, 1 mM CaCl2, 11 mM EGTA, and 10 mM Hepes (pH 7.22 with KOH). The osmolarity of the ECS and ICS were 302 mOsM.
Native peptides, phage-expressed peptides, and positive controls used for them were dissolved in ECS supplemented with 0.1 mg/ml bovine serum albumin (BSA; Sigma-Aldrich Hungary). Bath perfusion around the measured cell with different extracellular solutions was achieved using a gravity flow micro perfusion system using a rate of 0.5 ml/min. Excess fluid was removed continuously.
Voltage protocols: For measurement of Kv1.1 to 1.3 currents, voltage steps to +50 mV were applied from a holding potential of −120 mV and the peak current was measured every 15 s. For Kv1.3 currents, 15-ms-long depolarizing pulses were applied. For Kv1.1, 50-ms-long–activating stimuli were used. Kv1.2 currents were evoked by 200-ms-long pulses. […] The remaining current fraction at a given molar concentration was calculated as I/I0, where I0 is the peak current in the absence and I is the peak current at equilibrium block or […] after ∼2 min perfusion by the investigated peptide/phage.
Phage display test solutions were prepared according to routine phage display protocols ([62]). Phosphorylated and annealed oligonucleotides encoding the peptide construct were ligated into linearized pAS62 phagemid vector (https://patents.google.com/patent/WO2022144560A1/en) at a vector/insert ratio of 1:3. The final phagemid construct harbored a signal sequence followed by the peptide of interest, a linker sequence ([…]), and the C-terminal part of the P3 coat protein (amino acids: 216-424 of NP_510891.1). Chemically competent XL1-Blue E. coli cells (2022249, Agilent) were transformed with the ligation product and then streaked onto ampicillin (100 μg/ml) containing LB/Amp plates and incubated for 16 h at 37 °C.

[2] = tested on: human Kv1.1 channel (hKv1.1); assay: Whole-cell patch-clamp, hKv1.1-expressing CHO cells; format: cell-based; conditions: see Table 1 and Fig. S3; 1 nM peptide in patch-clamp
Experimental: Chinese Hamster Ovarian cells were grown in Dulbecco’s modified Eagle’s medium–high glucose supplemented with 10% FBS, 2 mM L-glutamine, 100 U/ml penicillin-g, and 100 μg/ml streptomycin (Invitrogen) at 37 °C in a 5% CO2 and 95% air humidified atmosphere. Cells were passaged twice per week following a 5 min incubation in PBS containing 0.2 g/L EDTA. Chinese Hamster Ovarian cells were transiently transfected with plasmids encoding human Kv1.1 (hKCNA1 gene) and human Kv1.2 (hKCNA2 gene) in pCMV6-AC-GFP plasmid (RG211000 and RC222200, OriGene Technologies) using Lipofectamine 2000 (Invitrogen) following the manufacturer’s protocol, then cultured under standard conditions. Transfected cells were washed twice with 2 ml of extracellular solution (ECS, see below) and replated onto 35 mm polystyrene cell culture dishes (Cellstar, Greiner Bio-One) before the patch-clamp experiments. […] In general, currents were recorded 24 to 36 h after transfection.
Conventional whole-cell patch-clamp electrophysiology was used to record ionic currents. Micropipettes were pulled from GC150F-7.5 borosilicate capillaries (Harvard Apparatus) with tip diameters between 0.5 and 1 μm resulting in a tip resistance of 2 to 8 MΩ in the extracellular (bath) solution. […]
Native peptides, phage-expressed peptides, and positive controls used for them were dissolved in ECS supplemented with 0.1 mg/ml bovine serum albumin (BSA; Sigma-Aldrich Hungary). Bath perfusion around the measured cell with different extracellular solutions was achieved using a gravity flow micro perfusion system using a rate of 0.5 ml/min. […]
Voltage protocols: For measurement of Kv1.1 to 1.3 currents, voltage steps to +50 mV were applied from a holding potential of −120 mV and the peak current was measured every 15 s. […] The remaining current fraction at a given molar concentration was calculated as I/I0, where I0 is the peak current in the absence and I is the peak current at equilibrium block or […] after ∼2 min perfusion by the investigated peptide/phage.

Structure (SMILES)	estimated relative potency in phage-displayed form [1]	inhibition of Kv1.3 current in phage-displayed form, in words [1]	potency ranking, Kv1.1 [2]
CC[C@H](C)[C@@H]1NC(=O)CNC(=O)[C@H](Cc2ccccc2)NC(=O)[C@H](CCC(N)=O)NC(=O)[C@H](C)NC(=O)[C@H](CCCCN)NC(=O)[C@@H]2CSSC[C@@H](C(=O)N[C@@H](Cc3ccc(O)cc3)C(=O)N3CCC[C@H]3C(=O)N[C@@H](Cc3c[nH]cn3)C(=O)O)NC(=O)[C@H](CCCCN)NC(=O)[C@@H]3CSSC[C@H](NC(=O)[C@H](CCC(N)=O)NC(=O)[C@H](CCCCN)NC(=O)[C@@H]4CCCN4C(=O)[C@H](CO)NC(=O)[C@H]([C@@H](C)O)NC(=O)[C@@H](NC(=O)[C@H](CCCCN)NC(=O)[C@@H](NC(=O)[C@H](CC(=O)O)NC(=O)[C@@H](NC(=O)[C@@H](NC(=O)[C@@H](N)[C@@H](C)O)C(C)C)[C@@H](C)CC)C(C)C)CSSC[C@H](NC(=O)[C@H](CCCCN)NC(=O)[C@H](C)NC(=O)CNC(=O)[C@H](C)NC(=O)[C@H](CCCNC(=N)N)NC1=O)C(=O)N[C@@H](CCSC)C(=O)N[C@@H](CC(N)=O)C(=O)NCC(=O)N[C@@H](CCCCN)C(=O)N3)C(=O)N[C@@H](CC(C)C)C(=O)N1CCC[C@H]1C(=O)N1CCC[C@H]1C(=O)N2 [HgTx1, Hongotoxin-1] (HELM PEPTIDE1{T.V.I.D.V.K.C.T.S.P.K.Q.C.L.P.P.C.K.A.Q.F.G.I.R.A.G.A.K.C.M.N.G.K.C.K.C.Y.P.H}$PEPTIDE1,PEPTIDE1,7:R3-29:R3|PEPTIDE1,PEPTIDE1,13:R3-34:R3|PEPTIDE1,PEPTIDE1,17:R3-36:R3$$$V2.0; N-terminus and C-terminus assumed)	1/30	significant inhibition	–
CC[C@H](C)[C@H](NC(=O)[C@H](CCC(=O)O)NC(=O)[C@@H](NC(=O)CN)C(C)C)C(=O)N[C@@H](CC(N)=O)C(=O)N[C@H](C(=O)N[C@@H](CCCCN)C(=O)N[C@H]1CSSC[C@@H]2NC(=O)[C@H](CCCCN)NC(=O)CNC(=O)[C@H](Cc3ccccc3)NC(=O)[C@H](CCCNC(=N)N)NC(=O)[C@H](CCSC)NC(=O)CNC(=O)[C@H](C)NC(=O)[C@H](CC(=O)O)NC(=O)[C@H](CCCCN)NC(=O)[C@@H]3CSSC[C@@H](C(=O)N[C@H](C(=O)N4CCC[C@H]4C(=O)N[C@@H](CCCCN)C(=O)O)[C@@H](C)O)NC(=O)[C@H](Cc4c[nH]cn4)NC(=O)[C@H](CSSC[C@H](NC(=O)[C@H](CCC(N)=O)NC(=O)[C@@H]4CCCN4C(=O)[C@H](CO)NC(=O)CNC(=O)[C@H](CO)NC1=O)C(=O)N[C@@H](CC(C)C)C(=O)N[C@@H](CCCCN)C(=O)N1CCC[C@H]1C(=O)N3)NC(=O)[C@H](CCCCN)NC(=O)[C@H](CCCNC(=N)N)NC(=O)[C@H](CC(N)=O)NC(=O)[C@H](CCSC)NC2=O)C(C)C [KTX1, Kaliotoxin-1]	< 1/600	significant inhibition	ShK > KTX1 >> MTX; also recorded: ShK > KTX1 > MTX
CC[C@H](C)[C@@H]1NC(=O)[C@@H]2CSSC[C@H](NC(=O)[C@H](CO)NC(=O)[C@@H](N)C(C)C)C(=O)N[C@@H]([C@@H](C)O)C(=O)NCC(=O)N[C@@H](CO)C(=O)N[C@@H](CCCCN)C(=O)N[C@@H](CC(=O)O)C(=O)N[C@@H](CSSC[C@@H](C(=O)N[C@@H](CCCCN)C(=O)N[C@H]3CSSC[C@@H](C(N)=O)NC(=O)CNC(=O)[C@H](Cc4ccc(O)cc4)NC3=O)NC(=O)[C@H](CO)NC(=O)[C@H](CCCCN)NC(=O)[C@H](CC(N)=O)NC1=O)C(=O)N[C@@H](Cc1ccc(O)cc1)C(=O)N[C@@H](C)C(=O)N1CCC[C@H]1C(=O)N[C@H]1CSSC[C@H](NC(=O)CNC(=O)[C@H]([C@@H](C)O)NC(=O)[C@H](CCC(N)=O)NC(=O)[C@H](CCCCN)NC(=O)[C@H](CCCNC(=N)N)NC1=O)C(=O)N1CCC[C@H]1C(=O)N[C@@H](CC(N)=O)C(=O)N[C@@H](C)C(=O)N[C@@H](CCCCN)C(=O)N2 [MTX, Maurotoxin] (HELM PEPTIDE1{V.S.C.T.G.S.K.D.C.Y.A.P.C.R.K.Q.T.G.C.P.N.A.K.C.I.N.K.S.C.K.C.Y.G.C.[am]}$PEPTIDE1,PEPTIDE1,3:R3-24:R3|PEPTIDE1,PEPTIDE1,9:R3-29:R3|PEPTIDE1,PEPTIDE1,13:R3-19:R3|PEPTIDE1,PEPTIDE1,31:R3-34:R3$$$V2.0; N-terminus and C-terminus assumed)	–	–	ShK > KTX1 >> MTX; also recorded: ShK > KTX1 > MTX
CC[C@H](C)[C@@H]1NC(=O)[C@@H](NC(=O)[C@H](CO)NC(=O)[C@@H](N)CCCNC(=N)N)CSSC[C@@H](C(=O)O)NC(=O)[C@H]([C@@H](C)O)NC(=O)CNC(=O)[C@@H]2CSSC[C@@H]3NC(=O)[C@H](CCC(N)=O)NC(=O)[C@H](Cc4ccccc4)NC(=O)[C@H](C)NC(=O)[C@H]([C@@H](C)O)NC(=O)[C@H](CSSC[C@H](NC(=O)[C@H](Cc4ccccc4)NC(=O)[C@H](CO)NC(=O)[C@H](CC(C)C)NC(=O)[C@H](CCCNC(=N)N)NC(=O)[C@H](Cc4ccc(O)cc4)NC(=O)[C@H](CCCCN)NC(=O)[C@H](CCSC)NC(=O)[C@H](CO)NC(=O)[C@H](Cc4c[nH]cn4)NC(=O)[C@H](CCCCN)NC3=O)C(=O)N[C@@H](CCCNC(=N)N)C(=O)N[C@@H](CCCCN)C(=O)N[C@@H]([C@@H](C)O)C(=O)N2)NC(=O)[C@H](CCCNC(=N)N)NC(=O)[C@H](CO)NC(=O)[C@H](CCCCN)NC(=O)[C@@H]2CCCN2C(=O)[C@H]([C@@H](C)CC)NC(=O)[C@H]([C@@H](C)O)NC(=O)[C@H](CC(=O)O)NC1=O [ShK, Stichodactyla toxin]	–	–	ShK > KTX1 >> MTX; also recorded: ShK > KTX1 > MTX
CC[C@H](C)[C@H](NC(=O)[C@H](C)NC(=O)[C@H](C)NC(=O)[C@H](C)N)C(=O)N[C@@H](CO)C(=O)N[C@H]1CSSC[C@@H]2NC(=O)[C@H](CCCCN)NC(=O)CNC(=O)[C@H](CC(N)=O)NC(=O)[C@H](CCCCN)NC(=O)[C@@H]3CSSC[C@@H](C(N)=O)NC(=O)[C@H](Cc4ccc(O)cc4)NC(=O)[C@H](Cc4ccc(O)cc4)NC(=O)[C@@H]4CSSC[C@H](NC(=O)[C@H](CCCCN)NC(=O)[C@@H]5CCCN5C(=O)[C@@H]5CCCN5C(=O)[C@H](CSSC[C@H](NC(=O)[C@H](CCCCN)NC(=O)[C@H](CCCNC(=N)N)NC(=O)[C@H](CC(N)=O)NC(=O)[C@H](CCSC)NC2=O)C(=O)N[C@@H](CCCCN)C(=O)N4)NC(=O)[C@H](CCC(=O)O)NC(=O)[C@@H]2CCCN2C(=O)[C@H](CO)NC(=O)CNC(=O)[C@H](C(C)C)NC1=O)C(=O)N[C@@H](CCCNC(=N)N)C(=O)N[C@@H](C)C(=O)N[C@@H](CCC(N)=O)C(=O)NCC(=O)N3 [Vm24, Vm24 toxin]	approximately 1	significant inhibition	–

Source: paper PMC11002876, “KcsA-Kv1.x chimeras with complete ligand-binding sites provide improved predictivity for screening selective Kv1.x blockers” (The Journal of Biological Chemistry, 2024)
